These are literature values, as cited in patent publication US20170035778A1, “FORMULATIONS AND USES FOR MICROPARTICLE DELIVERY OF METALLOPORPHYRINS” (The Board of Trustees of the Leland Stanford Junior …, priority 2015, published 2017).

The conditions of this series: SnMP within 24 h of birth in premature newborns.

As for tin mesoporphyrin [SnMP], the “reduction of the requirement for phototherapy compared with control subjects” value is recorded as “approximately 75%”.
